Measured values from US20090054312A1, “SMIPs: Small molecule inhibitors of p27 depletion in cancers and other proliferative diseases” (priority 2007, published 2009).
Counter-ions that a name gives are not always drawn. Like-named read-outs stand apart in the source and are kept apart here.

Key:
[1] = tested on: p27 levels in LNCaP-S14 cells; test: p27 immunofluorescence screening assay in LNCaP-S14 cells; details: for accumulation of p27, fold-induction normalized to DMSO: IF assay, 16 hours
Procedure: Screening protocol. The immunofluorescence assay was adapted to 384-well plate format. All parameters, including the number of cells to be plated, fixation and blocking conditions, antibody concentrations, and incubation times with compounds were extensively optimized using positive (proteasome inhibitors, roscovitine) and negative controls (vehicle), resulting in the following reliable protocol: 4000 LNCaP-S14 cells per well were seeded in 25 μL RPMI, 10% FBS, using an automated liquid handler (Wellmate). […] Cells were fixed by adding 20 μL of 10% para-formaldehyde (final concentration 4%) directly to the medium and incubation for 20 minutes at room temperature. Cells were permeabilized by washing 3×5 min with PBS, 0.1% Triton X100 (30 μL/well), followed by blocking in 30 μL/well 5% nonfat dry milk in PBS, 0.1% Triton X100 for 1 hour at room temperature. Cells were incubated in 15 μl/well primary antibody (anti-p27, Transduction Laboratories K25030, 1:1000 in blocking buffer) for 1 h. […] Cells were washed 3×5 min in PBS, 0.1% Triton X100 (30 μL/well) and stained with Hoechst dye for two min at room temperature. Cells were washed twice in PBS, 5 min each. 30 μL/well of PBS were added, and plates were sealed and stored in the dark at 4° C. until scanning. All solutions were added using the Wellmate device, and aspirations were done with a 24 pin manual aspirator (“the wand”).
Two images per well were obtained at each wave length and analyzed with MetaXpress software. Pixel dimensions for detection of cell nuclei were set to 7×12, a setting that performed well in the detection of nuclear staining, while successfully excluding aggregates of cells growing on top of each other. […] MetaXpress processing of the raw images provided quantitative measures of the total cell number and the number of p27 positive cells in a given field.
To develop a screening assay, the immunofluorescence assay was adapted to 384-well plate format. All parameters, including the number of cells to be plated, fixation and blocking conditions, antibody concentrations, and incubation times with compounds were extensively optimized using positive (proteasome inhibitors, roscovitine) and negative controls (vehicle). In parallel with the efforts described above, we established the following reliable protocol: 4000 S14 cells per well were seeded into 384-well plates in 30 μL RPMI and 10% FBS using an automated liquid handler (Wellmate). […] Cells were fixed by adding 20 μl of 10% paraformaldehyde (final concentration 4%) directly to the medium and incubation for 20 minutes at RT. Cells were permeabilized by washing 3×5 min with PBS, 0.1% Triton X100 (30 μL/well), followed by blocking in 30 μL/well 5% nonfat dry milk in PBS, 0.1% Triton X100 for 1 hour at RT. Cells were incubated in 15 μL/well primary antibody (anti-p27, Transduction Laboratories K25030, 1:1000 in blocking buffer) for 1 h. […] Cells were washed 3×5 min in PBS, 0.1% Triton X100 (30 μL/well) and stained with Hoechst dye for 2 min at RT. Cells were washed twice in PBS, 5 min each.

[2] = tested on: IMR90 normal human fibroblasts; test: MTT viability assay, IMR90; assay type: cell-based; details: Table 4, read-out: IC50 (concentration of 50% growth inhibition), IMR90
Procedure: We next explored the effects of SMIPs on cell viability. […] IC50 values (concentration of 50% growth inhibition) were calculated (Table 4).

[3] = tested on: LNCaP-S14 cells; test: MTT viability assay, LNCaP-S14; assay type: cell-based, human; details: 72 h, Table 4, read-out: IC50 (concentration of 50% growth inhibition), LNCaP-S14
Procedure: We next explored the effects of SMIPs on cell viability. S14 and IMR90 cells were exposed to increasing concentrations of SMIPs for 72 h and scored for viability using the MTT assay. IC50 values (concentration of 50% growth inhibition) were calculated (Table 4).
We next compared IC50 values for cytotoxicity of SMIP004 in S14 compared with parental LNCaP cells. […] We are testing whether SMIP-induced cytotoxicity is due to apoptosis.

[4] = Table 1, compounds showing SMIP activity in the secondary screen, p27-positive cells, cell line not given
[5] = Table 1, standard deviations from plate mean, cell line not given
[6] = […], p27-positive cells, cell line not given
[7] = SMIP concentration 40 (maximum dose)

Compound: CC(=O)Nc1ccc(S(=O)(=O)N(Cc2ccc3c(c2)CCO3)C2CC2)cc1 [N-(4-{[cyclopropyl(2,3-dihydro-1-benzofuran-5-ylmethyl)amino]sulfonyl}phenyl)acetamide]
- % positive [1, 4]: 14.84%
- Z score [1, 5]: 7.4706

Compound: O=C(Nc1ccccc1)Nc1ccc(SCc2nc(OCC(F)(F)F)cc(OCC(F)(F)F)n2)cc1 [N-[4-[[[4,6-bis(2,2,2-trifluoroethoxy)pyrimidin-2-yl]methyl]thio]phenyl]-N′′-phenylurea]
- % positive [1, 4]: 39.26%
- Z score [1, 5]: 25.1654

Compound: O=C(Nc1ccc([N+](=O)[O-])cc1Cl)c1cc(Cl)ccc1O [Niclosamide, reference compound]
- % positive [1, 4]: 42.32%
- Z score [1, 5]: 27.3834

Compound: CO[C@@H]1C[C@@H](C[C@H]2CC[C@H](C)[C@H]([C@@H](C)C(=O)O)O2)O[C@]2(O[C@](C)([C@H]3CC[C@@](C)([C@@H]4O[C@@H]([C@H]5O[C@@](O)(CO)[C@H](C)C[C@@H]5C)C[C@@H]4C)O3)C[C@H]2C)[C@@H]1C [Nigericin sodium, reference compound]
- % positive [1, 4]: 35.05%
- Z score [1, 5]: 22.1153

Compound: C1CCC(C(CC2CCCCN2)C2CCCCC2)CC1.O=C(O)/C=C\C(=O)O (centres unmarked) [Perhexilline maleate, reference compound]
- Z score [1, 5]: −0.0837
- % positive [1, 6]: 4.42%

Compound: OCCN1CCN(CCCN2c3ccccc3Sc3ccc(Cl)cc32)CC1 [Perphenazine, reference compound]
- % positive [1, 4]: 12.07%
- Z score [1, 5]: 5.4640

Compound: COc1ccc(C[C@H](N)C(=O)N[C@H]2[C@@H](O)[C@H](n3cnc4c(N(C)C)ncnc43)O[C@@H]2CO)cc1 [Puromycin hydrochloride, reference compound]
- % positive [1, 4]: 63.07%
- Z score [1, 5]: 42.4217

Compound: [O-][n+]1ccccc1[S-].[O-][n+]1ccccc1[S-].[Zn+2] [Pyrithione zinc, reference compound]
- % positive [1]: 10.31%
- Z score [1]: 4.1877

Compound: CCN(CC)CCCC(C)Nc1c2ccc(Cl)cc2nc2ccc(OC)cc12 (centres unmarked) [Quinacrine hydrochloride, reference compound]
- % positive [1, 4]: 36.17%
- Z score [1, 5]: 22.9232

Compound: COc1ccc(S(=O)(=O)N(Cc2ccc(Cl)cc2)Cc2ccc3cc[nH]c3c2)cc1 [SMIP003]
- IC50 ([2]; 72 h): 65.4 µM
- IC50 [3]: 15.9 µM
- accumulation of p27, fold-induction normalized to DMSO ([1]; SMIP concentration 1): 0.38 fold
- accumulation of p27, fold-induction normalized to DMSO ([1]; SMIP concentration 5): 0.54 fold
- accumulation of p27, fold-induction normalized to DMSO ([1]; SMIP concentration 10): 0.99 fold
- accumulation of p27, fold-induction normalized to DMSO ([1]; SMIP concentration 20): 1.83 fold
- accumulation of p27, fold-induction normalized to DMSO [1, 7]: 3.18 fold

Compound: O=C(Nc1ccccc1)Nc1ccc(SCc2nc(OCC(F)(F)F)cc(OCC(F)(F)F)n2)cc1 [SMIP012]
- IC50 ([2]; 72 h): ~10 µM
- IC50 [3]: 4.59 µM
- accumulation of p27, fold-induction normalized to DMSO ([1]; SMIP concentration 1): 0.42 fold
- accumulation of p27, fold-induction normalized to DMSO ([1]; SMIP concentration 5): 2.17 fold
- accumulation of p27, fold-induction normalized to DMSO ([1]; SMIP concentration 10): 1.95 fold
- accumulation of p27, fold-induction normalized to DMSO ([1]; SMIP concentration 20): 3.30 fold
- accumulation of p27, fold-induction normalized to DMSO [1, 7]: 2.43 fold

Compound: COc1ccc(S(=O)(=O)Nc2ccc3[nH]c(C(C)(C)C)cc3c2)cc1 [SMIP013]
- IC50 ([2]; 72 h): ~20 µM
- IC50 [3]: 18.2 µM
- accumulation of p27, fold-induction normalized to DMSO ([1]; SMIP concentration 1): −0.33 fold
- accumulation of p27, fold-induction normalized to DMSO ([1]; SMIP concentration 5): −0.10 fold
- accumulation of p27, fold-induction normalized to DMSO ([1]; SMIP concentration 10): 0.39 fold
- accumulation of p27, fold-induction normalized to DMSO ([1]; SMIP concentration 20): 2.74 fold
- accumulation of p27, fold-induction normalized to DMSO [1, 7]: 3.72 fold

Compound: CCC(=O)N(Cc1cccc(Cl)c1)c1ccc2[nH]c(C(C)(C)C)cc2c1 [SMIP015]
- IC50 ([2]; 72 h): ~20 µM
- IC50 [3]: 13 µM
- accumulation of p27, fold-induction normalized to DMSO ([1]; SMIP concentration 1): 0.08 fold
- accumulation of p27, fold-induction normalized to DMSO ([1]; SMIP concentration 5): 0.35 fold
- accumulation of p27, fold-induction normalized to DMSO ([1]; SMIP concentration 10): 0.43 fold
- accumulation of p27, fold-induction normalized to DMSO ([1]; SMIP concentration 20): 4.75 fold
- accumulation of p27, fold-induction normalized to DMSO [1, 7]: 4.25 fold

Compound: COc1ccc(S(=O)(=O)Nc2cccc3cc(C(=O)NCc4ccc(Cl)cc4)[nH]c23)cc1 [SMIP016]
- IC50 ([2]; 72 h): 4.41 µM
- IC50 [3]: 14.6 µM
- accumulation of p27, fold-induction normalized to DMSO ([1]; SMIP concentration 1): 0.94 fold
- accumulation of p27, fold-induction normalized to DMSO ([1]; SMIP concentration 5): 1.81 fold
- accumulation of p27, fold-induction normalized to DMSO ([1]; SMIP concentration 10): 1.73 fold
- accumulation of p27, fold-induction normalized to DMSO ([1]; SMIP concentration 20): 2.62 fold
- accumulation of p27, fold-induction normalized to DMSO [1, 7]: 2.44 fold

Compound: O=C(CSC1=NNC(c2ccccn2)S1)c1cccc(F)c1 (centres unmarked) [SMIP018]
- IC50 ([2]; 72 h): > 40 µM
- IC50 [3]: > 40 µM
- accumulation of p27, fold-induction normalized to DMSO ([1]; SMIP concentration 1): 0.26 fold
- accumulation of p27, fold-induction normalized to DMSO ([1]; SMIP concentration 5): 0.71 fold
- accumulation of p27, fold-induction normalized to DMSO ([1]; SMIP concentration 10): 0.67 fold
- accumulation of p27, fold-induction normalized to DMSO ([1]; SMIP concentration 20): 0.92 fold
- accumulation of p27, fold-induction normalized to DMSO [1, 7]: 3.07 fold

Compound: CC[C@@H](C(=O)[C@@H](C)[C@@H](O)[C@H](C)[C@@H]1O[C@@H]([C@@H](CC)C(=O)O)CC[C@@H]1C)[C@H]1O[C@]2(C=C[C@@H](O)[C@]3(CC[C@@](C)([C@H]4CC[C@](O)(CC)[C@H](C)O4)O3)O2)[C@H](C)C[C@@H]1C [Salinomycin, sodium, reference compound]
- Z score [1, 5]: 37.4159
- % positive [1, 6]: 56.17%

Compound: C[n+]1cc2c3c(ccc2c2ccc4cc5c(cc4c21)OCO5)OCO3 [Sanguinarine nitrate, reference compound]
- Z score [1, 5]: 11.4629
- % positive [1, 6]: 20.35%

Compound: O=C1C=C2C=C[C@@H]3C[C@@]2(O1)[C@H]1CCCCN31 [Securinine, reference compound]
- Z score [1, 5]: 7.6953
- % positive [1, 6]: 15.15%

Compound: O=C(CCCN1CCC2(CC1)C(=O)NCN2c1ccccc1)c1ccc(F)cc1 [Spiperone, reference compound]
- % positive [1, 4]: 32.90%
- Z score [1, 5]: 20.5550

Compound: Clc1ccc(CSC(Cn2ccnc2)c2ccc(Cl)cc2Cl)cc1 (centres unmarked) [Sulconazole nitrate, reference compound]
- % positive [1, 4]: 19.81%
- Z score [1, 5]: 11.0719

Compound: C/C=C(/C)C(=O)O[C@H]1C(C)=C2[C@H]([C@@H]1OC(=O)CCCCCCC)[C@@](C)(OC(C)=O)C[C@H](OC(=O)CCC)[C@@]1(O)[C@H]2OC(=O)[C@@]1(C)O [Thapsigargin, reference compound]
- IC50 ([2]; Homo sapiens, IMR-90, 72 h): 0.0311 µM
- IC50 ([3]; Homo sapiens): 0.0078 µM

Compound: C=C(NC(=O)C(=C)NC(=O)c1csc(C2=N[C@@H]3c4csc(n4)[C@H]4NC(=O)c5csc(n5)[C@H]([C@](C)(O)[C@@H](C)O)NC(=O)[C@H]5CSC(=N5)/C(=C/C)NC(=O)[C@H]([C@@H](C)O)NC(=O)c5csc(n5)[C@]3(CC2)NC(=O)[C@H](C)NC(=O)C(=C)NC(=O)[C@H](C)NC(=O)[C@H]([C@@H](C)CC)N[C@@H]2C=Cc3c([C@H](C)O)cc(nc3[C@H]2O)C(=O)O[C@@H]4C)n1)C(N)=O [Thiostrepton, reference compound]
- % positive [1, 4]: 15.09%
- Z score [1, 5]: 7.6485

Compound: CCCCCCCCCCCCCCCC[N+](C)(C)CCN(Cc1ccc(OC)cc1)c1ncccn1 [Thonzonium, reference compound]
- % positive [1, 4]: 9.65%
- Z score [1, 5]: 3.7078

Compound: Clofilium tosylate [reference compound]
- % positive [1, 4]: 53.49%
- Z score [1, 5]: 35.4749

Compound: Oligomycin A [Oligomycin A (mix of A, B, C), reference compound]
- % positive [1, 4]: 26.65%
- Z score [1, 5]: 16.0298
